Results as given in patent publication US7691867B2, “Chemical compounds” (AstraZeneca AB, priority 2003, dated 2010).

Columns and labels:
[1] = system: human tumour cell line SW620; test: In vitro cell proliferation assay (BrdU incorporation); format: cell-based; settings: SW-620, SW620 cells, 48 hours with compound, BrdU incorporation over 2 hour labelling period, read-out: 50% inhibition of enzyme activity at a concentration of
Text: (c) In Vitro cell Proliferation Assay
This and other assays can be used to determine the ability of a test compound to inhibit the growth of adherent mammalian cell lines, for example the human tumour cell line SW620 (ATCC CCL-227). This assay determines the ability of at test compound to inhibit the incorporation of the thymidine analogue, 5′-bromo-2′-deoxy-uridine (BrdU) into cellular DNA. SW620 or other adherent cells were typically seeded at 1×10^5 cells per well in L-15 media (GIBCO) plus 5% foetal calf serum, 1% L-glutamine (100 μl /well) in 96 well tissue culture treated 96 well plates (Costar) and allowed to adhere overnight. The following day the cells were dosed with compound (diluted from 10 mM stock in DMSO using L-15 (with 5% FCS, 1% L-glutamine). Untreated control wells and wells containing a compound known to give 100% inhibition of BrdU incorporation were included on each plate. After 48 hours in the presence/absence of test compound the ability of the cells to incorporate BrdU over a 2 hour labelling period was determined using a Boehringer (Roche) Cell Proliferation BrdU EUSA kit (cat. No. 1 647 229) according to manufacturers directions. Briefly, 15 μl of BrdU labelling reagent (diluted 1:100 in media—L-15, 5% FCS, 1% L-glutamine) was added to each well and the plate returned to a humidified (+5% CO2) 37° C. incubator for 2 hours. After 2 hours the labelling reagent was removed by decanting and tapping the plate on a paper towel. FixDenat solution (50 μl per well) was added and the plates incubated at room temperature for 45 mins with shaking. The FixDenat solution was removed by decanting and tapping the inverted plate on a paper towel. The plate was then washed once with phosphate buffered saline (PBS) and 100 μl/well of Anti-BrdU-POD antibody solution (diluted 1:100 in antibody dilution buffer) added. The plate was then incubated at room temperature with shaking for 90 min. […] The optical density of the wells was then determined at 690 nm wavelength using a Titertek Multiscan plate reader. […]

Aurora-B kinase = Aurora-B kinase (Homo sapiens, UniProt Q96GD4); test: In vitro Aurora-B kinase inhibition test; format: biochemical; settings: recombinant Aurora-B, peptide substrate, [γ33P]ATP, 60 minutes at room temperature; read-out: 50% inhibition of enzyme activity at a concentration of
Aurora-B kinase, sequence (Q96GD4 whole entry): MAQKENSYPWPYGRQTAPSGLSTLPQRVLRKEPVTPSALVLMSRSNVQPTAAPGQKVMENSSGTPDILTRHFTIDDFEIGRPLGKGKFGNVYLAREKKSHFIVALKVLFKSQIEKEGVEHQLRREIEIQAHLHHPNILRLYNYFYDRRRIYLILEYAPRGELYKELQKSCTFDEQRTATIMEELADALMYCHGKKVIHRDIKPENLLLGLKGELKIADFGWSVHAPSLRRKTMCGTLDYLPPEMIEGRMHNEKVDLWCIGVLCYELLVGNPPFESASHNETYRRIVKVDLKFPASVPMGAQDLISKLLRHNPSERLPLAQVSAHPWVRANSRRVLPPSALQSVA
Protocol: (b) In Vitro Aurora-B Kinase Inhibition Test
This assay determines the ability of a test compound to inhibit serine-threonine kinase activity. DNA encoding Aurora-B may be obtained by total gene synthesis or by cloning. This DNA may then be expressed in a suitable expression system to obtain polypeptide with serine-threonine kinase activity.
For the large scale expression of Aurora-B kinase activity, Sf21 insect cells were grown at 28° C. in TC100 medium supplemented with 10% foetal calf serum (Viralex) and 0.2% F68 Pluronic (Sigma) on a Wheaton roller rig at 3 r.p.m. When the cell density reached 1.2×10^6 cells ml^−1 they were infected with plaque-pure Aurora-B recombinant virus at a multiplicity of infection of 1 and harvested 48 hours later. All subsequent purification steps were performed at 4° C. Frozen insect cell pellets containing a total of 2.0×10^8 cells were thawed and diluted with lysis buffer (50 mM HEPES (N-[2-hydroxyethyl]piperazine-N′-[2-ethanesulphonic acid]) pH 7.5 at 4° C., 1 mM Na3VO4, 1 mM PMSF (phenylmethylsulphonyl fluoride), 1 mM dithiothreitol, 1 μg/ml aprotinin, 1 μg/ml pepstatin, 1 μg/ml leupeptin), using 1.0 ml per 2×10^7 cells. Lysis was achieved using a sonication homogeniser, following which the lysate was centrifuged at 41,000 g for 35 minutes. Aspirated supernatant was pumped onto a 5 mm diameter chromatography column containing 1.0 ml CM sepharose Fast Flow (Amersham Pharmacia Biotech) which had been equilibrated in lysis buffer. A baseline level of UV absorbance for the eluent was reached after washing the column with 12 ml of lysis buffer followed by 7 ml of wash buffer (50 mM HEPES pH 7.4 at 4° C., 1 mM dithiothreitol). Bound Aurora-B B protein was eluted from the column using a gradient of elution buffer (50 mM HEPES pH 7.4 at 4° C., 0.6 M NaCl, 1 mM dithiothreitol, running from 0% elution buffer to 100% elution buffer over 15 minutes at a flowrate of 0.5 ml/min). Elution fractions (1.0 ml) corresponding to the peak in UV absorbance was collected. […]

Aurora-A kinase = target: T1, Aurora-A kinase (Homo sapiens, UniProt O14965); test: In vitro Aurora-A kinase inhibition test; format: biochemical
T1 sequence (O14965 1-403): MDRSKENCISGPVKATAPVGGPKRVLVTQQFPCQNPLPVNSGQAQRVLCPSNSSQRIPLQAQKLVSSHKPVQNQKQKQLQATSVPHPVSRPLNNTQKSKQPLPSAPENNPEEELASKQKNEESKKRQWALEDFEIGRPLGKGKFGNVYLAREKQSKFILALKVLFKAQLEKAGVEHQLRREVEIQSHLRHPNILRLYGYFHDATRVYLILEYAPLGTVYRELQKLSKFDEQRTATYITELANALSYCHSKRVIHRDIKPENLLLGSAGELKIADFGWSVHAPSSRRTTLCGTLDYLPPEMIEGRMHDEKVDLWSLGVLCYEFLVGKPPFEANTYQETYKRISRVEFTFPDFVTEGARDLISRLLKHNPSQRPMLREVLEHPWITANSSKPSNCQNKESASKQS

SW620 cells = test: In vitro cell cycle analysis assay; format: cell-based; settings: Homo sapiens, SW-620, 24 hours with compound, DNA content by FACS, read-out: 50% inhibition of enzyme activity at a concentration of
Protocol: (d) In Vitro Cell Cycle Analysis Assay
This assay determines the ability of a test compound to arrest cells in specific phases of the cell cycle. Many different mammalian cell lines could be used in this assay and SW620 cells are included here as an example. SW620 cells were seeded at 7×10^5 cells per T25 flask (Costar) in 5 ml L-15 (5% FCS, 1% L-glutamine). Flasks were then incubated overnight in a humidified 37° C. incubator with 5% CO2. The following day, 5 μl of L-15 (5% FCS, 1% L-glutamine) carrying the appropriate concentration of test compound solubilised in DMSO was added to the flask. A no compound control treatment was also included (0.5% DMSO). The cells were then incubated for a defined time (24 hours) with compound. After this time the media was aspirated from the cells and they were washed with 5 ml of prewarmed (37° C.) sterile PBSA, then detached from the flask by brief incubation with trypsin and followed by resuspension in 5 ml of 1% Bovine Serum Albumin (BSA, Sigma-Aldrich Co.) in sterile PBSA. The samples were then centrifuged at 2200 rpm for 10 min. The supernatant was aspirated to leave 200 μl of the PBS/BSA solution. The pellet was resuspended in this 200 μl of solution by pipetting 10 times to create a single cell suspension. One ml of ice-cold 80% ethanol was slowly added to each cell suspension and the samples stored at −20° C. overnight or until required for staining. […]
Each sample was then syringed 10 times using 21-guage needle. The samples were then transferred to LPS tubes and DNA content per cell analysed by Fluorescence activated cell sorting (FACS) using a FACScan flow cytometer (Becton Dickinson). Typically 30,000 events were counted and recorded using CellQuest v1.1 software (Verity Software). Cell cycle distribution of the population was calculated using Modfit software (Verity Software) and expressed as percentage of cells with 2N (G0/G1), 2N4N (S phase) and with 4N (G2/M) DNA content.

With `COc1cc2c(Nc3cnn(CC(=O)Nc4cccc(F)c4)c3)ncnc2cc1OCCCN1CCC[C@@H]1CO` [Compound 27, N-(3-fluorophenyl)-2-{4-[(7-{3-[(2R)-2-(hydroxymethyl)pyrrolidin-1-yl]propoxy}-6-methoxyquinazolin-4-yl)amino]-1H-pyrazol-1-yl}acetamide] the IC50 [1] was 10 nM, the IC50 (Aurora-B kinase) was 5 nM and the IC50 (Aurora-A kinase) was 34 nM. For the same compound, the IC50 (SW620 cells) was 7 nM.

Compound `COc1cc2c(Nc3cnn(CC(=O)Nc4cccc(F)c4F)c3)ncnc2cc1OCCCN(CCO)CC(C)C` [Compound 60, N-(2,3-difluorophenyl)-2-{4-[(7-{3-[(2-hydroxyethyl)(isobutyl)amino]propoxy}-6-methoxyquinazolin-4-yl)amino]-1H-pyrazol-1-yl}acetamide] has an IC50 [1] of 1 nM, an IC50 (Aurora-B kinase) of 8 nM and an IC50 (Aurora-A kinase) of 10 nM. It also gave an IC50 (SW620 cells) of 3 nM.

For `CCN(CCO)CCCOc1ccc2c(Nc3cnn(CC(=O)Nc4cccc(F)c4)c3)ncnc2c1` [Compound 187, 2-{4-[(7-{3-[ethyl(2-hydroxyethyl)amino]propoxy}quinazolin-4-yl)amino]-1H-pyrazol-1-yl}-N-(3-fluorophenyl)acetamide], the IC50 [1] was 1 nM, the IC50 (Aurora-B kinase) was 9 nM and the IC50 (Aurora-A kinase) was 500 nM. For the same compound, the IC50 (SW620 cells) was 21 nM.
